# Laboratory results taken from PubChem BioAssay (NCI).
#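 Growth conditions: 96-well plates. Treatment: test compound, 48 hours, 5 concentrations. Analysis: linear interpolation between bracketing concentrations; unreached endpoints set to highest concentration. GI50 = concentration required for 50% inhibition of growth. Definition used: TGI = concentration required for complete inhibition of growth.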
# Columns and labels:
# Assay in all cases: inhibition of tumour cell growth, NCI panel, 48 h
# [1] = test system: HCC-2998 colon
# [2] = test system: SK-MEL-28 melanoma
# [3] = test system: T-47D breast
# [4] = test system: HT29 colon
# [5] = test system: TK-10 renal
# [6] = test system: M14 melanoma
# [7] = test system: SK-OV-3 ovarian
# [8] = test system: U251 CNS
# [9] = test system: HL-60(TB) leukemia
# [10] = test system: BT-549 breast
SMILES,TGI [1] [µM],TGI [2] [µM],TGI [3] [µM],TGI [4] [µM],TGI [5] [µM],TGI [6] [µM],TGI [7] [µM],TGI [8] [µM],TGI [9] [µM],TGI [10] [µM],GI50 [1] [µM],GI50 [3] [µM],GI50 [4] [µM],GI50 [5] [µM],GI50 [6] [µM],GI50 [7] [µM],GI50 [9] [µM],GI50 [10] [µM],GI50 [2] [µM],GI50 [8] [µM]
CCOC(=O)c1[nH]c2cccc3c2c1CC(Br)C3=O (configuration not stated),29.8,38.4,40.9,47.7,28.1,27.2,54.7,30.1,10.7,32.1,,,,,,,,,,
CN(C)CCCNC(=O)c1cc(NC(=O)c2cc(NC(=O)CCCN3c4ccccc4C=Cc4ccccc43)cn2C)cn1C,4.03,,> 100,> 100,13.9,> 100,> 100,,41.4,69.8,2.17,17.1,3.59,2.74,2.97,21.9,14.3,4.19,,
C[C@@H](Oc1cc(-c2cnn(C3CCNCC3)c2)cnc1N)c1c(Cl)ccc(F)c1Cl,> 10,3.54,7.9,2.31,> 10,2.65,> 10,8.74,1.9,> 10,2.28,1.71,0.437,2.76,1.08,5.85,0.398,5.24,1.61,1.98
CS(=O)(=O)c1ccc(Oc2nccc(-c3c(-c4ccc(F)cc4)ncn3C3CCNCC3)n2)cc1,> 25,> 25,> 25,> 25,> 25,> 25,> 25,> 25,> 25,> 25,> 25,> 25,> 22.2,> 25,> 25,> 25,> 20.6,> 25,> 25,> 25
CCN(Cc1ccc(F)cc1F)c1ccc(CO)c(Cl)c1,20.4,27.7,0.701,30.4,0.245,> 55.6,22.1,18.8,38.1,34.8,4.26,0.105,5.65,0.0434,20.3,7.65,8.47,14.3,14.1,0.641
CC(C)(C)[Si](C)(C)OC1[C@@H](O[Si](C)(C)C(C)(C)C)[C@@H](CNC(=O)NC(=O)NC(=O)CI)O[C@H]1n1cnc2c(NC(=O)Nc3ccccc3)ncnc21 (some centres not stated),17.8,22.8,28,0.771,1.05,14.6,27.9,1.88,0.166,13.9,8.22,9.63,0.225,0.21,6.1,10.4,0.0845,6.89,9.69,0.443
C=C(CN1CCc2ccccc2C1)c1ccc(/C=C/C(=O)Nc2ccccc2N)cc1,34.5,> 100,> 100,> 100,26.9,,> 100,27.8,76.8,> 100,2.04,10.5,59.9,3.88,,66,4.28,10.3,46.7,3.42
COc1cccc2c(Nc3ccc(C(=O)NCCNCCO)cc3)cc(-c3ccccc3)nc12,> 100,> 100,62,> 100,> 100,74.7,> 100,24.9,99.2,> 100,49.6,23,36,30.2,26.9,86.7,26.6,37.3,35.2,5.89
O=P(Oc1ccccc1)(Oc1ccccc1)C(O)c1ccccc1 (configuration not stated),> 100,> 100,> 100,> 100,> 100,> 100,> 100,> 100,> 100,> 100,> 100,25.2,78.1,> 100,> 100,> 100,60.7,> 100,85.7,48.9
Cc1c(C(=O)N/N=C/c2ccc(O)cc2)nnn1-c1ccnc2c(C(F)(F)F)cccc12,> 100,> 100,> 100,,> 100,> 100,76.7,,> 100,> 100,> 100,92.5,,> 100,> 100,27.2,> 100,41.6,> 100,
COc1cc(-c2cc(C(=O)Nc3nc4ccccc4s3)nc3cc(-c4ccccc4)nn23)cc(OC)c1OC,> 100,> 100,> 100,,32.7,> 100,27.9,32.6,,47,> 100,21.4,,11.9,2.39,12.5,,6.33,3.34,5.14
Cc1ccc2c(/C=C/C(=O)c3cc(CN4CCOCC4)c(O)c4nc(C)ccc34)cc(CN3CCOCC3)c(O)c2n1,2.76,12,14,3.39,3.77,11.7,,2.58,0.677,4.7,1.1,0.779,1.64,1.13,0.564,,0.272,1.22,1.08,0.412
CCOC(=O)Oc1c(OC)cc(C(=O)c2ccc(OC)c(OC(=O)CCl)c2OC)cc1OC,> 100,> 100,> 100,18.8,> 100,> 100,> 100,> 100,,9.5,3.36,7.32,3.15,> 100,0.491,2.58,,0.996,2.31,0.926
